Among the data in BindingDB's records for doi:10.1021/acs.jnatprod.5b00508 (Korea University, 2015) are EC50 values, retold here.

A word on the EC50: it is the midpoint of the concentration-response curve.

Assay [1] in a line: Inhibition of amyloid beta (25 to 35 residues) (unknown origin) aggregate-induced toxicity in rat PC12 cells preincubated for 1 hr followed by amyloid beta challenge measured after 24 hrs by MTT assay. For orientation: Formazan colour is commonly taken as a measure of viable cells.
The nature of assay [2]: Inhibition of amyloid beta (1 to 42 residues) (unknown origin) aggregate-induced toxicity in rat PC12 cells assessed as cell viability at 4 to 100 ug/ml pre-incubated for 24 hrs with Abeta ( 1 to 42) followed by compound-Abeta (1 to 42) mixture addition to cells and measured after 24 hrs by MTT assay.

Regarding `CC1=CC[C@@H]2[C@@]3(C)C=CC(=O)OC(C)(C)[C@@H]3CC[C@@]2(C)[C@]12Cc1c(c(C)c(C)oc1=O)O2`, the EC50 in assay [1] came out at 65.4 µM.

Take `CC1=CC[C@@H]2[C@@]3(C)[C@@H](O)CC(=O)OC(C)(C)[C@@H]3CC[C@@]2(C)[C@]12Cc1c(c(C)c(C)oc1=O)O2`: the concentration for a half-maximal effect (EC50) in assay [1] is greater than 300 µM.

Regarding `C[C@@H]1C[C@@]23C[C@H]4C(C)(C)[C@@]5(C[C@]4(CN2C1=O)NC3=O)C(=O)Nc1c5ccc2c1C=CC(C)(C)O2`, the figures for the EC50 in assay [2] and in assay [1] were 97.9 µM and greater than 300 µM, respectively.

With `C[C@@H]1C[C@@]23C[C@H]4C(C)(C)[C@@]5(C[C@]4(CN2C1=O)N(C)C3=O)C(=O)Nc1c5ccc2c1C=CC(C)(C)O2`, the EC50 in assay [1] is greater than 300 µM.

Consider `C[C@@H]1C[C@@]23C[C@H]4C(C)(C)[C@@]5(C[C@]4(CN2C1=O)NC3=O)C(=O)Nc1c5ccc2c1OC=CC(C)(C)O2`, for which, in assay [1], the EC50 was greater than 300 µM.

`C[C@H]1CN2C[C@]34C[C@@]5(C(=O)Nc6c5ccc5c6OC=CC(C)(C)O5)C(C)(C)[C@@H]3C[C@@]2(C1)C(=O)N4C`: the EC50 in assay [2] is 105 µM; in assay [1], greater than 300 µM.

Regarding `CN1C(=O)[C@@]23CCC(=O)N2C[C@@]12C[C@@]1(C(=O)Nc4c1ccc1c4C=CC(C)(C)O1)C(C)(C)[C@@H]2C3`, the EC50 in assay [2] came out at 89.9 µM; in assay [1] it was 150 µM.

In the case of `C[C@H]1CN2C[C@]34C[C@@]5(C(=O)Nc6c5ccc5c6C=CC(C)(C)O5)C(C)(C)[C@@H]3C[C@@]2(C1)C(=O)N4C`, the EC50 in assay [1] is greater than 300 µM.

As to `O=C(/C=C/c1ccc(O)c(O)c1)O[C@H](Cc1ccc(O)c(O)c1)C(=O)O` [Rosmarinic acid, 2], the EC50 in assay [2] came out at 57.2 µM; in assay [1], 68.1 µM.

The compound `CC(=O)O[C@H]1CC(=O)OC(C)(C)[C@@H]2CC[C@]3(C)[C@H](CC=C(C)[C@@]34C[C@]3(OC(C)=C(C)C3=O)C(=O)O4)[C@@]12C` had an EC50 in assay [1] of 113 µM.

`CC1(C)C=Cc2cc(C(=O)O)ccc2O1`: the EC50 in assay [1] is 252 µM.
